From ChEMBL document CHEMBL2203162, “Triazole pyrimidine nucleosides as inhibitors of Ribonuclease A. Synthesis, biochemical, and structural evaluation” (Bioorg Med Chem, 2012)

How the values were obtained:
[1] = Competitive inhibition of bovine pancreatic RNase A type 12-A assessed as degradation of yeast tRNA preincubated for 10 mins before addition of the enzyme by double reciprocal plot analysis; set-up: species or system Bos taurus
Ribonuclease pancreatic = target: T1, Ribonuclease pancreatic (Bos taurus, UniProt P61823); experiment: Inhibition of bovine pancreatic RNase A
T1 sequence (P61823 whole entry): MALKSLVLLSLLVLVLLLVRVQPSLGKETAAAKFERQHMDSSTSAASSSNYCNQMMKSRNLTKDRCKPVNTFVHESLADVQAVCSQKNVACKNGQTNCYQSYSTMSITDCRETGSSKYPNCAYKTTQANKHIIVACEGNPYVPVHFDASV

[2] = Competitive inhibition of bovine pancreatic RNase A type 12-A by Dixon plot analysis; set-up: species or system Bos taurus
Bos taurus = species: Bos taurus; experiment: Competitive inhibition of bovine pancreatic RNase A type 12-A assessed as degradation of yeast tRNA at 50 uM preincubated for 10 mins before addition of the enzyme by double reciprocal plot analysis
[3] = target: Ribonuclease pancreatic (Bos taurus) (UniProt P61823); experiment: Inhibition of RNase A
Angiogenin = Angiogenin (Homo sapiens, UniProt P03950); experiment: Inhibition of ANG
[4] = target: T2, Non-secretory ribonuclease (Homo sapiens, UniProt P10153); experiment: Inhibition of EDN
T2 sequence (P10153 whole entry): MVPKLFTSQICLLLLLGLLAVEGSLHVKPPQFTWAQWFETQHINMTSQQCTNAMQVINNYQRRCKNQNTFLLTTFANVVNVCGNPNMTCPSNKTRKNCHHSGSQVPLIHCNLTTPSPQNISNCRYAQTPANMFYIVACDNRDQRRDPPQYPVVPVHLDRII

Chain of Angiogenin (P03950 whole entry): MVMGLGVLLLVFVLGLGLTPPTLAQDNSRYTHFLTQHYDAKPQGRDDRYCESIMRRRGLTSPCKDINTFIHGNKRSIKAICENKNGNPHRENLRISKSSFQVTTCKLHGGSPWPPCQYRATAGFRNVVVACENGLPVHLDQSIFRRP

Q: With `O=c1[nH]c(=O)n([C@@H]2O[C@H](CO)[C@@H](O)[C@H]2O)cc1Br` as the compound, how does the Ki [1] read?
A: 69.1 µM

Q: With `O=c1ccn(Cc2cn([C@@H]3O[C@H](CO)[C@@H](O)[C@H]3O)nn2)c(=O)[nH]1` as the compound, how does the Ki (Ribonuclease pancreatic) read?
A: 0.24 µM

Q: With `Cc1cn([C@@H]2O[C@H](CO)[C@@H](O)[C@H]2O)c(=O)[nH]c1=O` as the compound, how does the Ki [1] read?
A: 44.1 µM

Q: Which Ki [1] does the source give for `O=c1[nH]c(=O)n([C@@H]2O[C@H](CO)[C@@H](O)[C@H]2O)cc1Cl` here?
A: 44.5 µM

Q: Which Ki [1] does the source give for `O=c1[nH]c(=O)n([C@@H]2O[C@H](CO)[C@@H](O)[C@H]2O)cc1F` [5-FLUOROURIDINE] here?
A: 33.6 µM

Q: Which Ki [2] does the source give for `O=c1ccn([C@@H]2O[C@H](COP(=O)(O)O)[C@@H](O)[C@H]2O)c(=O)[nH]1` here?
A: 4000 µM

Q: For `O=c1ccn([C@@H]2O[C@H](COP(=O)(O)OP(=O)(O)O)[C@@H](O)[C@H]2O)c(=O)[nH]1` [URIDINE_DIPHOSPHATE], which Ki [2] is on record?
A: 650 µM

Q: For `O=c1[nH]c(=O)n(Cc2cn([C@@H]3O[C@H](CO)[C@@H](O)[C@H]3O)nn2)cc1Cl`, which Ki [1] is on record?
A: 94.8 µM

Q: With `O=c1[nH]c(=O)n(Cc2cn([C@@H]3O[C@H](CO)[C@@H](O)[C@H]3O)nn2)cc1Br` as the compound, how does the inhibition (Bos taurus) read?
A: 20%

Q: Which Ki [3] does the source give for `Nc1ncnc2c1ncn2[C@@H]1O[C@H](COP(=O)(O)OP(=O)(O)O[C@H]2C[C@H](n3ccc(=O)[nH]c3=O)O[C@@H]2COP(=O)(O)O)[C@@H](OP(=O)(O)O)[C@H]1O` here?
A: 0.027 µM

Q: What about the Ki (Angiogenin) of the same compound?
A: 360 µM

Q: And the Ki [4]?
A: 0.18 µM

Q: For `O=c1ccn([C@@H]2O[C@H](CO)[C@@H](O)[C@H]2O)c(=O)[nH]1` [URIDINE], which Ki [1] is on record?
A: 28.5 µM
